Reference: patent US20190031717A1, “MULTI-FUNCTIONAL FUSION POLYPEPTIDE, PREPARATION METHOD THEREOF, AND APPLICATION OF SAME” (NANJING ANJI BIOLOGICAL TECHNOLOGY CO., LTD, priority 2016, published 2019)

Tests used:
Squamous cell carcinoma = test: MTT assay, lung cancer tumor cells; type: cell-based, human; set-up: concentration or dose not given beside the values; conditions: 48 h, mean ± SD
Method: (§1) The inhibition of the growth of human lung cancer tumor cells by the polypeptide of the present invention was examined by MTT assay. The lung cancer tumor cells were cultured in a 37° C., 5% (volume fraction) CO2 incubator to a density of 90% or more, and collected by trypsinization. The cells were resuspended in the culture medium and counted under a microscope to adjust the cell concentration to 2.0×10^4 cells/mL, the cell suspension was inoculated into a 96-well plate at 100 μL per well, and cultured overnight at 37° C. in a 5% (volume fraction) CO2 incubator. After the cells were completely adhered, the polypeptide of the present invention was added as a drug-administered group, and a culture solution containing no drug was used as a blank control group, and the culture solution was diluted to each predetermined concentration. Each dilution was separately added to a 96-well plate at 100 μL per well and incubated for 48 h at 37° C. in a 5% (volume fraction) CO2 incubator. 20 μL of 5 mg/mL MTT was added to each well of a 96-well plate, and incubation was continued for 4 hours. The medium was aspirated, and the cells were dissolved in 100 μL of DMSO per well. The absorbance was measured by a microplate reader at a detection wavelength of 570 nm and a reference wavelength of 630 nm, and the growth inhibition rate was calculated as follows: tumor growth inhibition rate (%)=(1−administered group absorbance value/unadministered group absorbance value)×100%, and the experiment was repeated 3 times independently. The results obtained by the test were expressed as mean±standard deviation. The results in Table 6 indicate that the polypeptides of the present invention have a good inhibitory effect on proliferation of a variety of human lung cancer tumors (FIG. 5).

Small Cell Lung Cancer = test: MTT assay, lung cancer tumor cells; type: cell-based, human; set-up: concentration or dose not given beside the values; conditions: 48 h, mean ± SD
Method: as §1

Large cell lung cancer = test: MTT assay, lung cancer tumor cells; type: cell-based, human; set-up: concentration or dose not given beside the values; conditions: 48 h, mean ± SD
Method: as §1

Adenosquamous carcinoma = test: MTT assay, lung cancer tumor cells; type: cell-based, human; set-up: concentration or dose not given beside the values; conditions: 48 h, mean ± SD
Method: as §1

Adenocarcinoma = test: MTT assay, lung cancer tumor cells; type: cell-based, human; set-up: concentration or dose not given beside the values; conditions: 48 h, mean ± SD
Method: as §1

[1] = test system: Non-small cell lung cancer; test: MTT assay, lung cancer tumor cells; type: cell-based, human; set-up: concentration or dose not given beside the values; conditions: 48 h, mean ± SD
Method: as §1

pneumonia fungi = test: Mouse pneumonia model, fungal; type: in vivo, BALB/C mice; set-up: concentration or dose not given beside the values; conditions: mean ± SD
Method: (§2) The mouse pneumonia model was successfully established by the nose-drop method. To build the mouse pneumonia model, BALB/C mice with a body mass of 16-22 g were selected and anesthetized pneumonia chain was prepared after anesthesia with ether on day 0, day 1, and day 2. Staphylococcal fluid, adenovirus concentrate, Mycoplasma pneumoniae, Chlamydia pneumoniae, protozoa, and pneumonia fungi were slowly dripped into the nasal cavity of the mice, so that they enter the tracheobronchial. During the operation process, care was exercised to prevent bacterial fluid from flowing into the esophagus, which leads to inactivation the bacterial fluid. After successful model establishment, the polypeptides of the present invention were administered, and the results were shown in Table 5. […] The results were expressed in average value±standard deviation.

Colorectal cancer = test: MTT assay, tumor cells; type: cell-based, human; set-up: concentration or dose not given beside the values; conditions: 48 hours, mean ± SD
Outline: (§3)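 Human tumor cells plated at 2.0×10^4 cells/mL (100 μL/well) overnight, then exposed to polypeptides for 48 h at 37 °C, 5% CO2. MTT 4 h, DMSO solubilization, absorbance 570/630 nm; growth inhibition % versus drug-free control, mean±SD of 3 independent experiments.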

Hemangioma = test: MTT assay, tumor cells; type: cell-based, human; set-up: concentration or dose not given beside the values; conditions: 48 hours, mean ± SD
Outline: as §3

Esophageal cancer = test: MTT assay, tumor cells; type: cell-based, human; set-up: concentration or dose not given beside the values; conditions: 48 hours, mean ± SD
Outline: as §3

Kidney cancer = test: MTT assay, tumor cells; type: cell-based, human; set-up: concentration or dose not given beside the values; conditions: 48 hours, mean ± SD
Outline: as §3

Uterine cancer = test: MTT assay, tumor cells; type: cell-based, human; set-up: concentration or dose not given beside the values; conditions: 48 hours, mean ± SD
Outline: as §3

Prostate cancer = test: MTT assay, tumor cells; type: cell-based, human; set-up: concentration or dose not given beside the values; conditions: 48 hours, mean ± SD
Outline: as §3

Brain tumor = test: MTT assay, tumor cells; type: cell-based, human; set-up: concentration or dose not given beside the values; conditions: 48 hours, mean ± SD
Outline: as §3

Thyroid cancer = test: MTT assay, tumor cells; type: cell-based, human; set-up: concentration or dose not given beside the values; conditions: 48 hours, mean ± SD
Outline: as §3

Breast cancer = test: MTT assay, tumor cells; type: cell-based, human; set-up: concentration or dose not given beside the values; conditions: 48 hours, mean ± SD
Outline: as §3

protozoa = test: Mouse pneumonia model, protozoal; type: in vivo, BALB/C mice; set-up: concentration or dose not given beside the values; conditions: mean ± SD
Method: as §2

adenovirus concentrate = test: Mouse pneumonia model, viral; type: in vivo, BALB/C mice; conditions: mean ± SD
Method: as §2

Mycoplasma pneumoniae = test: Mouse pneumonia model, mycoplasma; type: in vivo, BALB/C mice; set-up: concentration or dose not given beside the values; conditions: mean ± SD
Method: as §2

[2] = test system: Pneumonia caused by lung infection; test: Mouse pneumonia model, pneumonia caused by lung infection; type: in vivo, BALB/C mice; set-up: concentration or dose not given beside the values; conditions: mean ± SD
Method: as §2

In the case of “Arg-Gly-Asp-Gly-Gly-Gly-Gly-Ile-Val-Arg-Arg-Ala-Asp-Arg-Ala-Ala-Val-Pro-Gly-Gly-Gly-Gly-Pro-(D-Pyr)-(D-Cys)-Bip-Arg-Gly-Glu [Polypeptide IV]”, the “tumor growth inhibition rate, MTT Assay” value (Squamous cell carcinoma) was 67.13 ± 12.69%, the “tumor growth inhibition rate, MTT Assay” value (Small Cell Lung Cancer) was 71.14 ± 17.19% and the “tumor growth inhibition rate, MTT Assay” value (Large cell lung cancer) was 88.92 ± 19.05%. For the same substance, the “tumor growth inhibition rate, MTT Assay” value (Adenosquamous carcinoma) was 60.53 ± 16.36%, the “tumor growth inhibition rate, MTT Assay” value (Adenocarcinoma) was 88.65 ± 17.86% and the “tumor growth inhibition rate, MTT Assay” value [1] was 93.66 ± 23.44%. For the same substance, the “Inhibitory Effects on Various Pulmonary Infections” value (shortened to “Inhibitory Effects”) (pneumonia fungi) was 59.28 ± 19.64%, the “tumor growth inhibition rate, MTT Assay” value (Colorectal cancer) was 85.80 ± 22.95% and the “tumor growth inhibition rate, MTT Assay” value (Hemangioma) was 87.49 ± 27.47%. The “tumor growth inhibition rate, MTT Assay” value (Esophageal cancer) was 66.24 ± 17.72%, the “tumor growth inhibition rate, MTT Assay” value (Kidney cancer) was 60.35 ± 20.48% and the “tumor growth inhibition rate, MTT Assay” value (Uterine cancer) was 78.49 ± 25.33%. The “tumor growth inhibition rate, MTT Assay” value (Prostate cancer) was 81.37 ± 26.10%, the “tumor growth inhibition rate, MTT Assay” value (Brain tumor) was 68.85 ± 18.42% and the “tumor growth inhibition rate, MTT Assay” value (Thyroid cancer) was 63.05 ± 16.87%. For the same substance, the “tumor growth inhibition rate, MTT Assay” value (Breast cancer) was 92.16 ± 24.65%, the “Inhibitory Effects” value (protozoa) was 62.44 ± 24.16% and the “Inhibitory Effects” value (adenovirus concentrate) was 59.10 ± 18.42%. For the same substance, the “Inhibitory Effects” value (Mycoplasma pneumoniae) was 40.35 ± 16.87% and the “Inhibitory Effects” value [2] was 52.37 ± 21.81%.
“Arg-Gly-Asp-Gly-Gly-Gly-Gly-Pro-(D-Pyr)-(D-Cys)-Bip-Arg-Gly-Glu-Gly-Gly-Gly-Gly-Ile-Val-Arg-Arg-Ala-Asp-Arg-Ala-Ala-Val-Pro [Polypeptide III]” was tested, and the “tumor growth inhibition rate, MTT Assay” value (Squamous cell carcinoma) was 70.61 ± 12.86%, the “tumor growth inhibition rate, MTT Assay” value (Small Cell Lung Cancer) was 74.83 ± 13.63% and the “tumor growth inhibition rate, MTT Assay” value (Large cell lung cancer) was 93.53 ± 17.04%. The “tumor growth inhibition rate, MTT Assay” value (Adenosquamous carcinoma) was 63.67 ± 11.60%, the “tumor growth inhibition rate, MTT Assay” value (Adenocarcinoma) was 93.25 ± 16.99% and the “tumor growth inhibition rate, MTT Assay” value [1] was 91.58 ± 17.95%. The “Inhibitory Effects” value (pneumonia fungi) was 62.35 ± 17.56%, the “tumor growth inhibition rate, MTT Assay” value (Colorectal cancer) was 96.60 ± 21.18% and the “tumor growth inhibition rate, MTT Assay” value (Hemangioma) was 85.21 ± 25.36%. The “tumor growth inhibition rate, MTT Assay” value (Esophageal cancer) was 74.58 ± 16.36%, the “tumor growth inhibition rate, MTT Assay” value (Kidney cancer) was 67.94 ± 18.90% and the “tumor growth inhibition rate, MTT Assay” value (Uterine cancer) was 70.93 ± 23.38%. For the same substance, the “tumor growth inhibition rate, MTT Assay” value (Prostate cancer) was 73.54 ± 24.09%, the “tumor growth inhibition rate, MTT Assay” value (Brain tumor) was 77.52 ± 17.00% and the “tumor growth inhibition rate, MTT Assay” value (Thyroid cancer) was 70.99 ± 15.57%. The “tumor growth inhibition rate, MTT Assay” value (Breast cancer) was 90.11 ± 22.76%, the “Inhibitory Effects” value (protozoa) was 65.68 ± 18.50% and the “Inhibitory Effects” value (adenovirus concentrate) was 62.17 ± 17.51%. For the same substance, the “Inhibitory Effects” value (Mycoplasma pneumoniae) was 42.44 ± 11.96% and the “Inhibitory Effects” value [2] was 55.08 ± 15.52%.
For “Ile-Val-Arg-Arg-Ala-Asp-Arg-Ala-Ala-Val-Pro-Gly-Gly-Gly-Gly-Arg-Gly-Asp-Gly-Gly-Gly-Gly-Pro-(D-Pyr)-(D-Cys)-Bip-Arg-Gly-Glu [Polypeptide V]”, the “tumor growth inhibition rate, MTT Assay” value (Squamous cell carcinoma) was 57.18 ± 10.83%, the “tumor growth inhibition rate, MTT Assay” value (Small Cell Lung Cancer) was 60.60 ± 14.68% and the “tumor growth inhibition rate, MTT Assay” value (Large cell lung cancer) was 75.74 ± 16.27%. For the same substance, the “tumor growth inhibition rate, MTT Assay” value (Adenosquamous carcinoma) was 51.56 ± 13.97%, the “tumor growth inhibition rate, MTT Assay” value (Adenocarcinoma) was 75.52 ± 15.25% and the “tumor growth inhibition rate, MTT Assay” value [1] was 79.78 ± 20.01%. For the same substance, the “Inhibitory Effects” value (pneumonia fungi) was 50.50 ± 16.77%, the “tumor growth inhibition rate, MTT Assay” value (Colorectal cancer) was 73.08 ± 19.60% and the “tumor growth inhibition rate, MTT Assay” value (Hemangioma) was 87.49 ± 23.46%. The “tumor growth inhibition rate, MTT Assay” value (Esophageal cancer) was 56.43 ± 15.13%, the “tumor growth inhibition rate, MTT Assay” value (Kidney cancer) was 51.41 ± 17.48% and the “tumor growth inhibition rate, MTT Assay” value (Uterine cancer) was 66.86 ± 21.63%. The “tumor growth inhibition rate, MTT Assay” value (Prostate cancer) was 69.32 ± 22.29%, the “tumor growth inhibition rate, MTT Assay” value (Brain tumor) was 58.65 ± 15.73% and the “tumor growth inhibition rate, MTT Assay” value (Thyroid cancer) was 53.71 ± 14.40%. For the same substance, the “tumor growth inhibition rate, MTT Assay” value (Breast cancer) was 78.51 ± 21.05%, the “Inhibitory Effects” value (protozoa) was 53.19 ± 20.63% and the “Inhibitory Effects” value (adenovirus concentrate) was 50.35 ± 15.73%. The “Inhibitory Effects” value (Mycoplasma pneumoniae) was 34.37 ± 14.40% and the “Inhibitory Effects” value [2] was 44.61 ± 18.63%.
In the case of “Ile-Val-Arg-Arg-Ala-Asp-Arg-Ala-Ala-Val-Pro-Gly-Gly-Gly-Gly-Pro-(D-Pyr)-(D-Cys)-Bip-Arg-Gly-Glu-Gly-Gly-Gly-Gly-Arg-Gly-Asp [Polypeptide II]”, the “tumor growth inhibition rate, MTT Assay” value (Squamous cell carcinoma) was 65.14 ± 12.00%, the “tumor growth inhibition rate, MTT Assay” value (Small Cell Lung Cancer) was 69.03 ± 12.72% and the “tumor growth inhibition rate, MTT Assay” value (Large cell lung cancer) was 86.28 ± 15.90%. The “tumor growth inhibition rate, MTT Assay” value (Adenosquamous carcinoma) was 58.73 ± 10.82%, the “tumor growth inhibition rate, MTT Assay” value (Adenocarcinoma) was 86.03 ± 15.85% and the “tumor growth inhibition rate, MTT Assay” value [1] was 90.88 ± 16.75%. For the same substance, the “Inhibitory Effects” value (pneumonia fungi) was 57.52 ± 16.39%, the “tumor growth inhibition rate, MTT Assay” value (Colorectal cancer) was 83.25 ± 19.77% and the “tumor growth inhibition rate, MTT Assay” value (Hemangioma) was 84.45 ± 23.67%. For the same substance, the “tumor growth inhibition rate, MTT Assay” value (Esophageal cancer) was 64.28 ± 15.27%, the “tumor growth inhibition rate, MTT Assay” value (Kidney cancer) was 58.56 ± 17.64% and the “tumor growth inhibition rate, MTT Assay” value (Uterine cancer) was 64.54 ± 21.82%. The “tumor growth inhibition rate, MTT Assay” value (Prostate cancer) was 78.96 ± 22.49%, the “tumor growth inhibition rate, MTT Assay” value (Brain tumor) was 66.81 ± 15.87% and the “tumor growth inhibition rate, MTT Assay” value (Thyroid cancer) was 61.18 ± 14.53%. For the same substance, the “tumor growth inhibition rate, MTT Assay” value (Breast cancer) was 89.43 ± 21.24%, the “Inhibitory Effects” value (protozoa) was 60.59 ± 17.27% and the “Inhibitory Effects” value (adenovirus concentrate) was 57.35 ± 16.34%. For the same substance, the “Inhibitory Effects” value (Mycoplasma pneumoniae) was 39.16 ± 11.16% and the “Inhibitory Effects” value [2] was 50.81 ± 14.48%.
